Laboratory results from patent publication US20020137929A1, “1 - (3-heterocyclylphenyl) isothiourea, -isourea, -guanidine and -amidine herbicidal agents” (Intellectual Property Department, BASF Aktiengesellschaft, priority 1998, published 2002).

Legend:
ZEAMX (Corn, Field) = assay: Preemergence herbicidal evaluation; assay type: in vivo, Zea mays; conditions: rated 4-5 weeks after treatment, rating scale 0-9
Method in brief: (§1)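 Test compound, dissolved in aqueous acetone, was sprayed over planted soil cups at an equivalent of about 0.0156 to 0.500 kg/ha; seeds had been mixed with potting soil. Greenhouse growth followed, with visual 0-9 scoring of injury at four to five weeks.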

SETVI (Foxtail, Green) = assay: Postemergence herbicidal evaluation; assay type: in vivo, Setaria viridis; conditions: postemergence
Method in brief: (§2)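 Two-week-old seedlings sprayed with compound in 50/50 acetone/water plus 0.5% TWEEN 20, at about 0.0156 to 0.500 kg/ha, nozzle at 40 psi. Kept in greenhouse; rated visually 4-5 weeks after treatment on a 0-9 scale versus control, repeat tests averaged.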

CYPIR (Rice Flatsedge) = assay: Preemergence weed control under flooded paddy conditions; assay type: in vivo, Cyperus iria; conditions: rated 3-4 weeks after treatment
Method in brief: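 Ratings on a 0-9 visual scale cover stand, vigor, malformation, size, chlorosis and overall appearance relative to a control, taken three to four weeks post-treatment. Application was into flood water over freshly sown silt loam at roughly 0.0313 to 0.500 kg/ha.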

ECHCG (Barnyardgrass) = assay: Postemergence herbicidal evaluation; assay type: in vivo, Echinochloa crus-galli; conditions: postemergence
Method in brief: as §2

GALAP (Galium) [1] = assay: Preemergence herbicidal evaluation; assay type: in vivo, Galium aparine; conditions: rated 4-5 weeks after treatment, rating scale 0-9
Method in brief: as §1

[2] = system: GLXMAW (Soybean, Williams); assay: Postemergence herbicidal evaluation; assay type: in vivo, Glycine max, (L.) Merr. cv Williams; conditions: postemergence
Method in brief: as §2

GALAP (Galium) [3] = assay: Postemergence herbicidal evaluation; assay type: in vivo, Galium aparine; conditions: postemergence
Method in brief: as §2

[4] = system: SAGPY (Arrowhead (Pygmaea)); assay: Preemergence weed control under flooded paddy conditions; assay type: in vivo, Sagittaria pygmaea; conditions: rated 3-4 weeks after treatment
Method in brief: (§3)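 Silt loam, seeds in top 0.5 cm; flood held 1.5-3 cm; test cpd as acetone/water 50/50 into flood water, ~0.0313-0.500 kg/ha a.i.; greenhouse 3-4 wk; visual 0-9 score vs control.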

CASOB (Sicklepod) [5] = assay: Preemergence herbicidal evaluation; assay type: in vivo, Cassia obtusifolia; conditions: rated 4-5 weeks after treatment, rating scale 0-9
Method in brief: as §1

AMBEL (Ragweed, Common) = assay: Postemergence herbicidal evaluation; assay type: in vivo, Ambrosia artemisifolia; conditions: postemergence
Method in brief: as §2

CASOB (Sicklepod) [6] = assay: Postemergence herbicidal evaluation; assay type: in vivo, Cassia obtusifolia; conditions: postemergence
Method in brief: as §2

[7] = system: CHEAL (Lambsquarters, Common); assay: Postemergence herbicidal evaluation; assay type: in vivo, Chenopodium album; conditions: postemergence
Method in brief: as §2

ORYSAT (Rice, Tebonnet) = assay: Postemergence herbicidal evaluation; assay type: in vivo, Oryza sativa, (L.) Tebonnet; conditions: postemergence
Method in brief: as §2

CYPSE (Flatsedge) = assay: Preemergence weed control under flooded paddy conditions; assay type: in vivo, Cyperus serotinus; conditions: rated 3-4 weeks after treatment
Method in brief: as §3

COc1cccc(CN2C(=O)CSC2=Nc2cc(-n3c(=O)cc(C(F)(F)F)n(C)c3=O)c(F)cc2Cl)c1 [Compound 137, 3-{4-Chloro-2-fluoro-5-{[3-(m-methoxybenzyl)-4-oxo-2-thiazolidinylidene]amino}phenyl}-1-methyl-6-(trifluoromethyl)-2,4(1H,3H)-pyrimidinedione]
Preemergence herbicidal rating ZEAMX (ZEAMX (Corn, Field); rate 0.0625 kg/ha): 0.0
Preemergence herbicidal rating ZEAMX (ZEAMX (Corn, Field); rate 0.1250 kg/ha): 0.0
Preemergence herbicidal rating ZEAMX (ZEAMX (Corn, Field); rate 0.2500 kg/ha): 0.0
herbicidal rating SETVI (SETVI (Foxtail, Green); rate 0.0156 kg/ha): 1.0
herbicidal rating SETVI (SETVI (Foxtail, Green); rate 0.0313 kg/ha): 1.0
herbicidal rating SETVI (SETVI (Foxtail, Green); rate 0.0625 kg/ha): 3.0
herbicidal effect rating, CYPIR (CYPIR (Rice Flatsedge); 0.0313 kg/ha): 3.0
herbicidal effect rating, CYPIR (CYPIR (Rice Flatsedge); 0.0625 kg/ha): 2.0
herbicidal effect rating, CYPIR (CYPIR (Rice Flatsedge); 0.1250 kg/ha): 2.0
herbicidal effect rating, CYPIR (CYPIR (Rice Flatsedge); 0.2500 kg/ha): 4.0
herbicidal rating ECHCG (ECHCG (Barnyardgrass); rate 0.0156 kg/ha): 2.0
herbicidal rating ECHCG (ECHCG (Barnyardgrass); rate 0.0313 kg/ha): 1.0
herbicidal rating ECHCG (ECHCG (Barnyardgrass); rate 0.0625 kg/ha): 3.0
Preemergence herbicidal rating GALAP (GALAP (Galium) [1]; rate 0.0625 kg/ha): 0.0
Preemergence herbicidal rating GALAP (GALAP (Galium) [1]; rate 0.1250 kg/ha): 0.0
Preemergence herbicidal rating GALAP (GALAP (Galium) [1]; rate 0.2500 kg/ha): 0.0
herbicidal rating GLXMAW ([2]; rate 0.0156 kg/ha): 6.0
herbicidal rating GLXMAW ([2]; rate 0.0313 kg/ha): 5.5
herbicidal rating GLXMAW ([2]; rate 0.0625 kg/ha): 5.5
herbicidal rating GALAP (GALAP (Galium) [3]; rate 0.0156 kg/ha): 1.0
herbicidal rating GALAP (GALAP (Galium) [3]; rate 0.0313 kg/ha): 1.0
herbicidal rating GALAP (GALAP (Galium) [3]; rate 0.0625 kg/ha): 3.0
herbicidal effect rating, SAGPY ([4]; 0.0313 kg/ha): 0.0
herbicidal effect rating, SAGPY ([4]; 0.0625 kg/ha): 0.0
herbicidal effect rating, SAGPY ([4]; 0.1250 kg/ha): 0.0
herbicidal effect rating, SAGPY ([4]; 0.2500 kg/ha): 3.0
Preemergence herbicidal rating CASOB (CASOB (Sicklepod) [5]; rate 0.0625 kg/ha): 0.0
Preemergence herbicidal rating CASOB (CASOB (Sicklepod) [5]; rate 0.1250 kg/ha): 0.0
Preemergence herbicidal rating CASOB (CASOB (Sicklepod) [5]; rate 0.2500 kg/ha): 0.0
herbicidal rating AMBEL (AMBEL (Ragweed, Common); rate 0.0156 kg/ha): 9.0
herbicidal rating AMBEL (AMBEL (Ragweed, Common); rate 0.0313 kg/ha): 9.0
herbicidal rating AMBEL (AMBEL (Ragweed, Common); rate 0.0625 kg/ha): 9.0
herbicidal rating CASOB (CASOB (Sicklepod) [6]; rate 0.0156 kg/ha): 1.0
herbicidal rating CASOB (CASOB (Sicklepod) [6]; rate 0.0313 kg/ha): 1.0
herbicidal rating CASOB (CASOB (Sicklepod) [6]; rate 0.0625 kg/ha): 4.0
herbicidal rating CHEAL ([7]; rate 0.0156 kg/ha): 6.0
herbicidal rating CHEAL ([7]; rate 0.0313 kg/ha): 9.0
herbicidal rating CHEAL ([7]; rate 0.0625 kg/ha): 9.0
herbicidal rating ORYSAT (ORYSAT (Rice, Tebonnet); rate 0.0156 kg/ha): 3.0
herbicidal rating ORYSAT (ORYSAT (Rice, Tebonnet); rate 0.0313 kg/ha): 3.0
herbicidal rating ORYSAT (ORYSAT (Rice, Tebonnet); rate 0.0625 kg/ha): 3.5
herbicidal effect rating, CYPSE (CYPSE (Flatsedge); 0.0313 kg/ha): 0.0
herbicidal effect rating, CYPSE (CYPSE (Flatsedge); 0.0625 kg/ha): 0.0
herbicidal effect rating, CYPSE (CYPSE (Flatsedge); 0.1250 kg/ha): 0.0
herbicidal effect rating, CYPSE (CYPSE (Flatsedge); 0.2500 kg/ha): 0.0

Cn1c(C(F)(F)F)cc(=O)n(-c2cc(N=C3SCC(=O)N3Cc3ccccc3Cl)c(Cl)cc2F)c1=O [Compound 143]
Preemergence herbicidal rating ZEAMX (ZEAMX (Corn, Field); rate 0.0313 kg/ha): 0.0
Preemergence herbicidal rating ZEAMX (ZEAMX (Corn, Field); rate 0.0625 kg/ha): 0.0
Preemergence herbicidal rating ZEAMX (ZEAMX (Corn, Field); rate 0.1250 kg/ha): 0.0
Preemergence herbicidal rating ZEAMX (ZEAMX (Corn, Field); rate 0.2500 kg/ha): 0.0
herbicidal rating SETVI (SETVI (Foxtail, Green); rate 0.0156 kg/ha): 2.0
herbicidal rating SETVI (SETVI (Foxtail, Green); rate 0.0313 kg/ha): 1.0
herbicidal rating SETVI (SETVI (Foxtail, Green); rate 0.0625 kg/ha): 3.0
herbicidal effect rating, CYPIR (CYPIR (Rice Flatsedge); 0.0313 kg/ha): 0.0
herbicidal effect rating, CYPIR (CYPIR (Rice Flatsedge); 0.0625 kg/ha): 3.0
herbicidal effect rating, CYPIR (CYPIR (Rice Flatsedge); 0.1250 kg/ha): 4.0
herbicidal effect rating, CYPIR (CYPIR (Rice Flatsedge); 0.2500 kg/ha): 4.0
herbicidal rating ECHCG (ECHCG (Barnyardgrass); rate 0.0156 kg/ha): 1.0
herbicidal rating ECHCG (ECHCG (Barnyardgrass); rate 0.0313 kg/ha): 2.0
herbicidal rating ECHCG (ECHCG (Barnyardgrass); rate 0.0625 kg/ha): 1.0
Preemergence herbicidal rating GALAP (GALAP (Galium) [1]; rate 0.0313 kg/ha): 0.0
Preemergence herbicidal rating GALAP (GALAP (Galium) [1]; rate 0.0625 kg/ha): 0.0
Preemergence herbicidal rating GALAP (GALAP (Galium) [1]; rate 0.1250 kg/ha): 1.0
Preemergence herbicidal rating GALAP (GALAP (Galium) [1]; rate 0.2500 kg/ha): 0.0
herbicidal rating GLXMAW ([2]; rate 0.0156 kg/ha): 4.0
herbicidal rating GLXMAW ([2]; rate 0.0313 kg/ha): 4.5
herbicidal rating GLXMAW ([2]; rate 0.0625 kg/ha): 5.0
herbicidal rating GALAP (GALAP (Galium) [3]; rate 0.0156 kg/ha): 0.0
herbicidal rating GALAP (GALAP (Galium) [3]; rate 0.0313 kg/ha): 1.0
herbicidal rating GALAP (GALAP (Galium) [3]; rate 0.0625 kg/ha): 3.0
herbicidal effect rating, SAGPY ([4]; 0.0313 kg/ha): 0.0
herbicidal effect rating, SAGPY ([4]; 0.0625 kg/ha): 0.0
herbicidal effect rating, SAGPY ([4]; 0.1250 kg/ha): 0.0
herbicidal effect rating, SAGPY ([4]; 0.2500 kg/ha): 5.0
Preemergence herbicidal rating CASOB (CASOB (Sicklepod) [5]; rate 0.0313 kg/ha): 0.0
Preemergence herbicidal rating CASOB (CASOB (Sicklepod) [5]; rate 0.0625 kg/ha): 0.0
Preemergence herbicidal rating CASOB (CASOB (Sicklepod) [5]; rate 0.1250 kg/ha): 0.0
Preemergence herbicidal rating CASOB (CASOB (Sicklepod) [5]; rate 0.2500 kg/ha): 1.0
herbicidal rating AMBEL (AMBEL (Ragweed, Common); rate 0.0156 kg/ha): 9.0
herbicidal rating AMBEL (AMBEL (Ragweed, Common); rate 0.0313 kg/ha): 9.0
herbicidal rating AMBEL (AMBEL (Ragweed, Common); rate 0.0625 kg/ha): 9.0
herbicidal rating CASOB (CASOB (Sicklepod) [6]; rate 0.0156 kg/ha): 0.0
herbicidal rating CASOB (CASOB (Sicklepod) [6]; rate 0.0313 kg/ha): 1.0
herbicidal rating CASOB (CASOB (Sicklepod) [6]; rate 0.0625 kg/ha): 3.0
herbicidal rating CHEAL ([7]; rate 0.0156 kg/ha): 2.0
herbicidal rating CHEAL ([7]; rate 0.0313 kg/ha): 6.0
herbicidal rating CHEAL ([7]; rate 0.0625 kg/ha): 6.0
herbicidal rating ORYSAT (ORYSAT (Rice, Tebonnet); rate 0.0156 kg/ha): 1.5
herbicidal rating ORYSAT (ORYSAT (Rice, Tebonnet); rate 0.0313 kg/ha): 1.5
herbicidal rating ORYSAT (ORYSAT (Rice, Tebonnet); rate 0.0625 kg/ha): 2.0
herbicidal effect rating, CYPSE (CYPSE (Flatsedge); 0.0313 kg/ha): 0.0
herbicidal effect rating, CYPSE (CYPSE (Flatsedge); 0.0625 kg/ha): 0.0
herbicidal effect rating, CYPSE (CYPSE (Flatsedge); 0.1250 kg/ha): 0.0
herbicidal effect rating, CYPSE (CYPSE (Flatsedge); 0.2500 kg/ha): 0.0
